From patent US20140094493A1, “Novel Ether Linked Compounds and Improved Treatments for Cardiac and Cardiovascular Disease” (priority 2011, published 2014)
Counter-ions that a name gives are not always drawn.

Experiments:
[1] = target: T1, human beta1-adrenoceptor (Homo sapiens, UniProt P08588); assay: 3H-CGP12177 whole-cell binding, beta1; conditions: for Kd / Beta 1 Log KD: 3H-CGP 12177 whole cell binding, CHO cells expressing human beta1-adrenoceptor, logarithmic value; for Kd: read-out: Beta 1 Log KD (converted); for Beta 1-Beta 2 Log KD (selectivity): difference of Log KD beta1 and beta2, 1 = 10-fold, 2 = 100-fold, 3 = 1000-fold selectivity
T1 construct: expressed in transfected cells; host or cells: CHO cells
Experimental: (§1) Selectivity of ligands for the three beta-adrenoceptors was assessed by whole-cell binding studies using ^3H-CGP12177 in CHO cells expressing the human beta1, beta2 or beta3-adrenoceptors respectively essentially as described by Baker (2005; Br. J Pharmacol: 144, 317-22) Values shown are KD values determined as described by Baker (2005). KD represents the concentration of compound required to occupy 50% of the receptors in cells or tissues.
(§2) The selectivity of a ligand is given by the ratio of beta-1 to beta-2 KD. Accordingly a difference of one in the logarithmic values thereof represents a 10-fold selectivity, a difference of 2 represents 100-fold selectivity and a difference of 3 represents 1000-fold selectivity etc.

[2] = target: T2, human beta2-adrenoceptor (Homo sapiens, UniProt P07550); assay: 3H-CGP12177 whole-cell binding, beta2; conditions: 3H-CGP 12177 whole cell binding, CHO cells expressing human beta2-adrenoceptor, logarithmic value; for Kd: read-out: Beta 2 Log KD (converted)
T2 construct: expressed in transfected cells; host or cells: CHO cells
Experimental: as §1, §2

[3] = target: β1-adrenoceptor (Homo sapiens, UniProt P08588); conditions: background statement on known compounds; cited from earlier work
Sequence of β1-adrenoceptor (P08588 whole entry, species assumed): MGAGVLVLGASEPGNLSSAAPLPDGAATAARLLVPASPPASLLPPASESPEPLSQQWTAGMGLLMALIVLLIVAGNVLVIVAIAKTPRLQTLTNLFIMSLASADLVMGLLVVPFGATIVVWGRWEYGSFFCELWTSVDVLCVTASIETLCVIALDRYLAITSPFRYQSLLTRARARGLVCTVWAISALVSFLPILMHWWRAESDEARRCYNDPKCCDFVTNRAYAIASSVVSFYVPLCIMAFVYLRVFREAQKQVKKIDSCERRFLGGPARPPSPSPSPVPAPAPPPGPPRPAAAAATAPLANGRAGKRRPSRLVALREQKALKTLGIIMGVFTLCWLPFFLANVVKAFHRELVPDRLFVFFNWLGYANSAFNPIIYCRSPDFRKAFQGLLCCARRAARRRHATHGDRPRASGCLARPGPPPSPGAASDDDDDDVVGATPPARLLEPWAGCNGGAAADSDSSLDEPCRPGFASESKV

T2 sequence (P07550 whole entry): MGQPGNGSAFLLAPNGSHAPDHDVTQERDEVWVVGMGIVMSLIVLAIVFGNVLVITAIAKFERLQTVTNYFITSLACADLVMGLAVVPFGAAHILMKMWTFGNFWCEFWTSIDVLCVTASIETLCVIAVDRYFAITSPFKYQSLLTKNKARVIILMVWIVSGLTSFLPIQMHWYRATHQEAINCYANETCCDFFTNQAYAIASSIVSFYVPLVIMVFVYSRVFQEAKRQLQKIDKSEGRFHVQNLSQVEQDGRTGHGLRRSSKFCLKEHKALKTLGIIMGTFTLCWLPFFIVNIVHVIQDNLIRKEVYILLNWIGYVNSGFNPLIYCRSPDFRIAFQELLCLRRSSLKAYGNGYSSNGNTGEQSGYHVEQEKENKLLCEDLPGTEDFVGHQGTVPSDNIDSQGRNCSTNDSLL
T1 sequence (P08588 whole entry): as the sequence (P08588 whole entry, species assumed) above

melting point	Kd [1]	Beta 1-Beta 2 Log KD (selectivity) [1]	Kd [2]	Beta 1 Log KD [1]	Beta 2 Log KD [2]	SMILES	β1-selectivity [3]
234 to 235 °C						NC(=O)c1ccc(OCCNC[C@H](O)COc2ccc(CCCN3CCC(F)(F)CC3)cc2)cc1 (as salt: hydrochloride) [Example 41, (S)-4-(2-(3-(4-(3-(4,4-difluoropiperidin-1-yl)propyl)phenoxy)-2-hydroxypropyl)amino)-ethoxy)benzamide dihydrochloride]	
	0.00741 µM	2.01	0.759 µM			COc1ccc(OCCNCC(O)COc2ccc(OCCOC3CCCC3)cc2)cc1 (racemic) [Example 3]	
		2.40				NC(=O)c1ccc(OCCNCC(O)COc2ccc(OCCOC3CCCC3)cc2)cc1 (centres unmarked) [Example 1]	
73 to 75 °C	0.0115 µM	1.96	1.05 µM			CN(C)C(=O)c1ccc(OCCNC[C@H](O)COc2ccc(OCCOC3CCCC3)cc2)cc1 [Example 6]	
132 to 135 °C	0.00288 µM	2.66	1.32 µM			NC(=O)c1ccc(OCCNC[C@H](O)COc2ccc(CCCOCC3CC3)cc2)cc1 [Example 8]	
120 to 122 °C	0.000912 µM	2.59	0.355 µM			NC(=O)c1ccc(OCCNC[C@H](O)COc2ccc(CCCOC3CCCC3)cc2)cc1 [Example 9]	
136 to 138 °C	0.0234 µM	2.64	10.2 µM			NC(=O)c1ccc(OCCNC[C@H](O)COc2ccc3c(c2)OC[C@@H](COCC2CC2)O3)cc1 [Example 11]	
128 to 130 °C	0.000832 µM	2.22	0.138 µM			O[C@@H](CNCCOc1ccc2ncccc2c1)COc1ccc(CCCOCC2CC2)cc1 [Example 12]	
		2.3		−8.83	−6.53	CC(=O)Nc1ccc(OCCNC[C@H](O)COc2ccc(CCCOCC3CC3)cc2)cc1 [Example 13]	
	0.00417 µM	2.48	1.26 µM			O[C@@H](CNCCOc1ccc2ncccc2c1)COc1ccc2c(c1)OC[C@@H](COCC1CC1)O2 [Example 14]	
123 to 125 °C	0.00759 µM	2.76	4.37 µM			CC(=O)Nc1ccc(OCCNC[C@H](O)COc2ccc3c(c2)OC[C@@H](COCC2CC2)O3)cc1 [Example 15]	
134 to 136 °C	0.00617 µM	2.91	5.01 µM			NC(=O)c1ccc(OCCNC[C@H](O)COc2ccc3c(c2)OC[C@@H](COC2CCCC2)O3)cc1 [Example 16]	
	0.00457 µM	3.01	4.68 µM			O=C1NCc2cc(OCCNC[C@H](O)COc3ccc4c(c3)OC[C@@H](COCC3CC3)O4)ccc21 [Example 18]	
		2.28		−8.99	−6.71	NC(=O)c1ccc(OCCNC[C@H](O)COc2ccc(CCOCC3CC3)cc2)cc1 [Example 20]	
	0.00275 µM	2.19	0.427 µM			O[C@@H](CNCCOc1ccc2nccnc2c1)COc1ccc(CCCOCC2CC2)cc1 [Example 21]	
183 to 185 °C	0.00832 µM	2.23	1.41 µM			O=c1[nH]c2ccc(OCCNC[C@H](O)COc3ccc(CCCOCC4CC4)cc3)cc2[nH]1 [Example 22]	
	0.000794 µM	2.64	0.347 µM			O=C1NCc2cc(OCCNC[C@H](O)COc3ccc4c(c3)OC[C@@H](COc3ccc(F)cc3)O4)ccc21 [Example 25]	

melting point	Kd [1]	Beta 1-Beta 2 Log KD (selectivity) [1]	Kd [2]	Beta 1 Log KD [1]	Beta 2 Log KD [2]	SMILES	β1-selectivity [3]
161 to 164 °C	0.00417 µM	2.78	2.51 µM			O=C1NCc2cc(OCCNC[C@H](O)COc3ccc4c(c3)OC[C@H](COc3ccc(F)cc3)O4)ccc21 [Example 26]	
148 to 150 °C	0.117 µM	<2.93	> 100 µM			NC(=O)c1ccc(OCCNC[C@H](O)COc2ccc3cc(COCC4CC4)ccc3c2)cc1 [Example 28]	
194 to 196 °C	0.0794 µM	<3.10	> 100 µM			O=C1NCc2cc(OCCNC[C@H](O)COc3ccc4cc(OCC5CC5)ccc4c3)ccc21 [Example 29]	
192 to 194 °C	0.0575 µM	3.10	72.4 µM			O=C1NCc2cc(OCCNC[C@H](O)COc3ccc4c(c3)OC[C@@H](COc3ccncc3)O4)ccc21 [Example 30]	
	0.00282 µM	2.85	2 µM			O=C1NCc2cc(OCCNC[C@H](O)COc3ccc4c(c3)OC[C@@H](COc3cccc(F)c3)O4)ccc21 [Example 33]	
188 to 189 °C	0.00339 µM	3.37	7.76 µM			O=C1NCc2cc(OCCNC[C@H](O)COc3ccc4c(c3)OC[C@@H](COc3ccc(OC(F)(F)F)cc3)O4)ccc21 [Example 34]	
182 to 184 °C	0.00269 µM	3.37	6.31 µM			COc1c(F)cc(OC[C@@H]2COc3cc(OC[C@@H](O)CNCCOc4ccc5c(c4)CNC5=O)ccc3O2)cc1F [Example 37]	
146 to 148 °C	0.00107 µM	2.91	0.871 µM			Cc1ccccc1OC[C@@H]1COc2cc(OC[C@@H](O)CNCCOc3ccc4c(c3)CNC4=O)ccc2O1 [Example 39]	
145 to 147 °C	0.00324 µM	2.70	1.62 µM			COc1ccc(OCC2COc3cc(OCC(O)CNCCOc4ccc5c(c4)CNC5=O)ccc3O2)c(F)c1 (centres unmarked) [Example 40]	
	0.00182 µM	2.87	1.35 µM			NC(=O)c1ccc(OCCNC[C@H](O)COc2ccc(CCCN3CCC(F)(F)CC3)cc2)cc1 [Example 41, (S)-4-(2-(3-(4-(3-(4,4-difluoropiperidin-1-yl)propyl)phenoxy)-2-hydroxypropyl)amino)-ethoxy)benzamide dihydrochloride]	
132 to 133 °C	0.00195 µM	2.32	0.407 µM			O=C1NCc2cc(OCCNC[C@H](O)COc3ccc(CCCN4CCC(F)(F)CC4)cc3)ccc21 [Example 42]	
134 to 135 °C	0.00427 µM	2.81	2.75 µM			O=C1NCc2cc(OCCNC[C@H](O)COc3ccc4c(c3)OC[C@@H](CN3CCC(F)(F)CC3)O4)ccc21 [Example 43, 5-(2-((S)-3-((R)-2-((4,4-difluoropiperidin-1-yl)methyl)-2,3-dihydrobenzo[b][1,4]-dioxin-6-yloxy)-2-hydroxypropylamino)ethoxy)isoindolin-1-one]	
101 to 103 °C	0.316 µM	<2.50	> 100 µM			CC1(C)COc2cc(OC[C@@H](O)CNCCOc3ccc(C(N)=O)cc3)ccc2O1 [Example 44, (S)-4-(2-(3-(2,2-dimethyl-2,3-dihydrobenzo[b][1,4]dioxin-6-yloxy)-2-hydroxypropyl-amino)ethoxy)benzamide]	
		2.65		−9.17	−6.52	O=C1NCc2cc(OCCNC[C@H](O)COc3ccc(CCCOC4CC4)cc3)ccc21 [Example 45]	
		2.57		−8.67	−6.10	NC(=O)c1ccc(OCCNC[C@H](O)COc2ccc(CCCOC3CC3)cc2)cc1 [Example 46]	
						CCOCCOc1ccc(OC[C@@H](O)CNCCc2ccc(OC)c(OC)c2)cc1 [Example D-140S]	4,400 fold
						N#Cc1cc(OCCOCC2CC2)ccc1OCC(O)CNCCNC(=O)Nc1ccc(O)cc1 (centres unmarked) [LK-204545]	1,778 fold

SMILES	melting point	Kd [1]	Beta 1-Beta 2 Log KD (selectivity) [1]	Kd [2]	Beta 1 Log KD [1]	Beta 2 Log KD [2]	β1-selectivity [3]
O=C1NCc2cc(OCCNC[C@H](O)COc3ccc4c(c3)OC[C@@H](COc3ccccc3F)O4)ccc21 [Example 35]			3.70		−8.68	−4.98	
O=C1NCc2cc(OCCNC[C@H](O)COc3ccc4c(c3)OC[C@@H](COc3c(F)cccc3F)O4)ccc21 [Example 38]			3.34		−8.54	−5.20	
